Assays:
[1] = target: T1, mouse 11β-HSD1 (Mus musculus, UniProt P50172); experiment: Enzyme inhibitory activity assay, lysate of CHO-K1 cells stably expressing mouse 11β-HSD1, cortisol by competitive ELISA; type: biochemical; details: Table 2; cell lysate, 100 nmol/L cortisone, NADPH, 37° C. 1 hour; read-out: in vitro assay (IC50 uM) m HSD1
T1 construct: expressed in transfected cells
Protocol: (§1) 1. Human 11β-HSD1-, Human 11β-HSD2- and Mouse 11β-HSD1-Gene Clonings and Establishment of Stably Expressing Cells
(§2) Human 11β-HSD1- and human 11β-HSD2-expressing vectors were transfected into human kidney-derived cell line, HEK293 cells, using a transfection reagent, jet PEI (Funakoshi). Mouse 11β-HSD1 was transfected to Chinese hamster ovary-derived cell line, CHO-K1 cells. Selection was conducted with 200-400 μg/mL of zeocine (Invitrogen) to provide stably expressing-cell clones. The stably expressing cells were suspended in buffer solution A (20 mmol/L Tris-HCl, pH 7.4, 250 mmol/L sucrose, 1 mmol/L EGTA, 1 mmol/L EDTA, 1 mmol/L MgCl2), sonicated, and then stored at −80° C.
(§3) 2. Assay of Enzyme Inhibitory Activity
(§4) An enzymatic reaction was conducted using a polystyrene 96-well plate. Each well was added with 1 μL of a test agent dissolved in DMSO and then diluted (0.003 to 3 mmol/L), and further added with 10 μL of cell lysate diluted to a concentration of 0.1 mg/mL to 0.4 mg/mL. Next, 90 μL of buffer solution A containing substrate (100 nmol/L cortisone or cortisol) and coenzyme (400 μmol/L NADPH or NAD+) was added and the mixture was incubated at 37° C. for 1 hour. The enzymatic reaction was stopped by treating at 95° C. for 3 minutes. Cortisol that was present in the reaction solution was determined by a competitive ELISA shown below.
(§5) Anti-rabbit IgG antibody (Chemi-con) diluted to 2 μg/mL with carbonate buffer solution (pH 9.6) was added in 100 μL each to a 96-well immuno plate (Nunc) and immobilized by an incubation at 4° C. overnight. […] After washed three times with buffer solution B containing 0.05% Tween 20, the plates were allowed to develop color by adding 100 μL, of color reagent, TMB (Moss). The color reaction was stopped by 25 μL of 1 mol/L sulfuric acid and the absorbance was determined at 450 nm with a microplate reader (Molecular Device, VersaMax).

[2] = target: T2, human 11β-HSD1 (Homo sapiens, UniProt P28845); experiment: Enzyme inhibitory activity assay, lysate of HEK293 cells stably expressing human 11β-HSD1, cortisol by competitive ELISA; type: biochemical; details: Table 1; cell lysate, 100 nmol/L cortisone, NADPH, 37° C. 1 hour; read-out: in vitro assay (IC50 uM) h HSD1
T2 construct: expressed in transfected cells
T2 sequence (P28845 whole entry): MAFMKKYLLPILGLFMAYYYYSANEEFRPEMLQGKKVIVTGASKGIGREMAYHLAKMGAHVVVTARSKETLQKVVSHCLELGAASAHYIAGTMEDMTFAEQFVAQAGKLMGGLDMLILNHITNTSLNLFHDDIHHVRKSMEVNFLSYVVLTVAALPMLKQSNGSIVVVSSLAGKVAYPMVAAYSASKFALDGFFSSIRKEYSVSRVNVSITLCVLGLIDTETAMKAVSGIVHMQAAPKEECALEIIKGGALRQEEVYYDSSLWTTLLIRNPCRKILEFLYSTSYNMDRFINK
Protocol: as §1, §2, §3, §4, §5

T1 sequence (P50172 whole entry): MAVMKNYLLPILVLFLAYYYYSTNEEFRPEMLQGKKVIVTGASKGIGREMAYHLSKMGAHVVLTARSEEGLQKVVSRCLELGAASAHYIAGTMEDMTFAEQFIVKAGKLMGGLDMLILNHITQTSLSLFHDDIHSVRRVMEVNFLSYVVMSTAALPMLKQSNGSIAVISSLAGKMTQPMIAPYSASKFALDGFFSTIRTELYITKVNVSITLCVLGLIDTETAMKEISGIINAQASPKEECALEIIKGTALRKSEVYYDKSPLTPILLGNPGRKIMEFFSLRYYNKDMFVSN

IC50 [1] [µM] | IC50 [2] [µM] | SMILES
0.074 | 0.029 | COC(=O)[C@]12CC3CC(C1)[C@@H](N1C(=O)C(C)(C)C1c1cccc4cccnc14)C(C3)C2 (stereo partly drawn) [Example 18, methyl trans-4-[2-(quinolin-8-yl)-3,3-dimethyl-4-oxoazetidin-1-yl]-1-adamantane carboxylate]
0.053 | 0.057 | CC1(C)C(=O)N([C@H]2C3CC4CC2C[C@](C(N)=O)(C4)C3)C1c1cccc2cccnc12 (stereo partly drawn) [Example 20, trans-4-[2-(quinolin-8-yl)-3,3-dimethyl-4-oxoazetidin-1-yl]-1-adamantane carboxyamide]
0.18 | 0.02 | CC1(C)C(=O)N(C2C3CC4CC(C3)CC2C4)C1c1cccc(Cl)c1F (stereo not drawn) [Example 25, 1-(adamantan-2-yl)-3,3-dimethyl-4-(3-chloro-2-fluorophenyl)azetidin-2-one]
0.16 | 0.029 | CC1(C)C(=O)N(C2C3CC4CC(C3)CC2C4)C1c1cccc(C(F)(F)F)c1F (stereo not drawn) [Example 28, 1-(adamantan-2-yl)-3,3-dimethyl-4-(2-fluoro-3-trifluoromethylphenyl)azetidin-2-one]
0.13 | 0.016 | CC1(C)C(=O)N(C2C3CC4CC(C3)CC2C4)C1c1cccc(C(F)(F)F)c1Cl (stereo not drawn) [Example 30, 1-(adamantan-2-yl)-3,3-dimethyl-4-(2-chloro-3-trifluoromethylphenyl)azetidin-2-one]
0.076 | 0.015 | CC1(C)C(=O)N(C2C3CC4CC(C3)CC2C4)C1c1cc(Cl)cc(Cl)c1 (stereo not drawn) [Example 31, 1-(adamantan-2-yl)-3,3-dimethyl-4-(3,5-dichlorophenyl)azetidin-2-one]
– | 0.024 | CC1(C)C(=O)N(C2C3CC4CC(C3)CC2C4)C1c1ccc(F)c(C(F)(F)F)c1 (stereo not drawn) [Example 32, 1-(adamantan-2-yl)-3,3-dimethyl-4-(4-fluoro-3-trifluoromethylphenyl)azetidin-2-one]
0.031 | 0.012 | COc1cccc(C2N(C3C4CC5CC(C4)CC3C5)C(=O)C2(C)C)c1 (stereo not drawn) [Example 34, 1-(adamantan-2-yl)-3,3-dimethyl-4-(3-methoxyphenyl)azetidin-2-one]
– | 0.091 | CC1(C)C(=O)N(C2C3CC4CC(C3)CC2C4)C1c1cc(F)c(F)c(F)c1 (stereo not drawn) [Example 36, 1-(adamantan-2-yl)-3,3-dimethyl-4-(3,4,5-trifluorophenyl)azetidin-2-one]
0.69 | 0.006 | CC1(C)C(=O)N(C2C3CC4CC(C3)CC2C4)C1c1ccc(OC(F)(F)F)cc1 (stereo not drawn) [Example 42, 1-(adamantan-2-yl)-3,3-dimethyl-4-(4-trifluoromethoxyphenyl)azetidin-2-one]
– | 0.025 | CC1(C)C(=O)N(C2C3CC4CC(C3)CC2C4)C1c1ccc(Br)cc1 (stereo not drawn) [Example 43, 1-(adamantan-2-yl)-3,3-dimethyl-4-(4-bromophenyl)azetidin-2-one]
0.0035 | 0.0081 | CC1(C)C(=O)N(C2C3CC4CC(C3)CC2C4)C1c1cccc2ccccc12 (stereo not drawn) [Example 45, 1-(adamantan-2-yl)-3,3-dimethyl-4-(naphthalen-1-yl)azetidin-2-one]
0.029 | 0.0081 | CC1(C)C(=O)N([C@H]2C3CC4CC2C[C@](O)(C4)C3)C1c1cccc(Cl)c1Cl (stereo partly drawn) [Example 46, trans-1-(5-hydroxyadamantan-2-yl)-3,3-dimethyl-4-(2,3-dichlorophenyl)azetidin-2-one]
– | 0.1 | COC(=O)[C@]12CC3CC(C1)[C@@H](N1C(=O)C(C)(C)C1c1ccnc4ccccc14)C(C3)C2 (stereo partly drawn) [Example 49, methyl trans-4-[2-(quinolin-4-yl)-3,3-dimethyl-4-oxoazetidin-1-yl]-1-adamantane carboxylate]
– | 0.08 | CC1(C)C(=O)N([C@H]2C3CC4CC2C[C@](C(N)=O)(C4)C3)C1c1ccnc2ccccc12 (stereo partly drawn) [Example 51, trans-4-[2-(quinolin-4-yl)-3,3-dimethyl-4-oxoazetidin-1-yl]-1-adamantane carboxyamide]
– | 0.91 | CC1(C)C(=O)N(C2C3CC4CC(C3)CC2C4)C1c1cc(C(F)(F)F)cc(C(F)(F)F)c1 (stereo not drawn) [Example 54, 1-(adamantan-2-yl)-3,3-dimethyl-4-[3,5-bis(trifluoromethyl)phenyl]azetidin-2-one]

The remaining lines, values behind:

SMILES | IC50 [1] [µM] | IC50 [2] [µM]
CC1(C)C(=O)N(C2C3CC4CC(C3)CC2C4)C1c1cccc(Cl)c1Cl (stereo not drawn) [Example 2, 1-(adamantan-2-yl)-3,3-dimethyl-4-(2,3-dichlorophenyl)azetidin-2-one] | 0.054 | 0.0054
CC1(C)C(=O)N([C@H]2C3CC4CC2C[C@](Cl)(C4)C3)C1c1cccc(Cl)c1Cl (stereo partly drawn) [Example 3, trans-1-(5-chloroadamantan-2-yl)-3,3-dimethyl-4-(2,3-dichlorophenyl)azetidin-2-one] | 0.31 | 0.057
CC1(C)C(=O)N([C@H]2C3CC4CC2C[C@@](Cl)(C4)C3)C1c1cccc(Cl)c1Cl (stereo partly drawn) [Example 4, cis-1-(5-chloroadamantan-2-yl)-3,3-dimethyl-4-(2,3-dichlorophenyl)azetidin-2-one] | 0.34 | 0.046
CC1(C)C(=O)N([C@H]2C3CC4CC2C[C@](Cl)(C4)C3)C1c1cccc2ccccc12 (stereo partly drawn) [Example 5, trans-1-(5-chloroadamantan-2-yl)-3,3-dimethyl-4-(naphthalen-1-yl)azetidin-2-one] | 0.66 | 0.88
CC1(C)C(=O)N([C@H]2C3CC4CC2C[C@@](Cl)(C4)C3)C1c1cccc2ccccc12 (stereo partly drawn) [Example 6, cis-1-(5-chloroadamantan-2-yl)-3,3-dimethyl-4-(naphthalen-1-yl)azetidin-2-one] | 0.87 | 0.56
COC(=O)[C@]12CC3CC(C1)[C@@H](N1C(=O)C(C)(C)C1c1cccc(Cl)c1Cl)C(C3)C2 (stereo partly drawn) [Example 7, methyl trans-4-[2-(2,3-dichlorophenyl)-3,3-dimethyl-4-oxoazetidin-1-yl]-1-adamantane carboxylate] | 0.25 | 0.013
CC1(C)C(=O)N([C@H]2C3CC4CC2C[C@](C(=O)O)(C4)C3)C1c1cccc(Cl)c1Cl (stereo partly drawn) [Example 8, trans-4-[2-(2,3-Dichlorophenyl)-3,3-dimethyl-4-oxoazetidin-1-yl]-1-adamantane carboxylic acid] | – | 0.066
CC1(C)C(=O)N([C@H]2C3CC4CC2C[C@](C(N)=O)(C4)C3)C1c1cccc(Cl)c1Cl (stereo partly drawn) [Example 9, trans-4-[2-(2,3-dichlorophenyl)-3,3-dimethyl-4-oxoazetidin-1-yl]-1-adamantane carboxyamide] | 0.035 | 0.005
COC(=O)[C@]12CC3CC(C1)[C@@H](N1C(=O)C(C)(C)C1c1cccc4ccccc14)C(C3)C2 (stereo partly drawn) [Example 10, methyl trans-4-[2-(naphthalen-1-yl)-3,3-dimethyl-4-oxoazetidin-1-yl]-1-adamantane carboxylate] | 0.034 | 0.019
CC1(C)C(=O)N([C@H]2C3CC4CC2C[C@](C(=O)O)(C4)C3)C1c1cccc2ccccc12 (stereo partly drawn) [Example 11, trans-4-[2-(naphthalen-1-yl)-3,3-dimethyl-4-oxoazetidin-1-yl]-1-adamantane carboxylic acid] | 0.42 | 0.26
CC1(C)C(=O)N([C@H]2C3CC4CC2C[C@](C(N)=O)(C4)C3)C1c1cccc2ccccc12 (stereo partly drawn) [Example 12, trans-4-[2-(naphthalen-1-yl)-3,3-dimethyl-4-oxoazetidin-1-yl]-1-adamantane carboxyamide] | 0.023 | 0.022
COC(=O)[C@]12CC3CC(C1)[C@@H](N1C(=O)C(C)(C)C1c1cccc4c1OCO4)C(C3)C2 (stereo partly drawn) [Example 13, methyl trans-4-[2-(benzo[d][1,3]dioxol-4-yl)-3,3-dimethyl-4-oxoazetidin-1-yl]-1-adamantane carboxylate] | 0.24 | 0.051
CC1(C)C(=O)N([C@H]2C3CC4CC2C[C@](C(=O)O)(C4)C3)C1c1cccc2c1OCO2 (stereo partly drawn) [Example 14, trans-4-[2-(benzo[d][1,3]dioxol-4-yl)-3,3-dimethyl-4-oxoazetidin-1-yl]-1-adamantane carboxylic acid] | 0.0095 | 0.013
CC1(C)C(=O)N([C@H]2C3CC4CC2C[C@](C(N)=O)(C4)C3)C1c1cccc2c1OCO2 (stereo partly drawn) [Example 15, trans-4-[2-(benzo[d][1,3]dioxol-4-yl)-3,3-dimethyl-4-oxoazetidin-1-yl]-1-adamantane carboxyamide] | 0.031 | 0.031
CC1(C)C(=O)N([C@H]2C3CC4CC2C[C@](C(N)=O)(C4)C3)C1c1cccc2cnccc12 (stereo partly drawn) [Example 16, trans-4-[2-(isoquinolin-5-yl)-3,3-dimethyl-4-oxoazetidin-1-yl]-1-adamantane carboxyamide] | – | 0.41
